Key:
Assay in all cases: Minimum inhibitory concentration (MIC), agar plate dilution method
Format in all cases: cell-based
Al. fecalis IFO13111 = conditions: 10^6 CFU inoculated, 37° C., 18 hours
Protocol: (§1) With regard to the novel compounds obtained according to this invention and the compounds of Reference Examples, their minimum inhibitory concentrations (MIC) were determined by the agar plate dilution method in accordance with the MIC measuring standard method of The Chemotherapeutic Society of Japan, whereby 10^6 colony forming units were inoculated and the minimal concentration to inhibit the microbial growth after inclubation at 37° C. for 18 hours were determined, as shown as μg/ml in Table.

B. fragilis GM7000 = conditions: 10^6 CFU inoculated, 37° C., 18 hours; for MIC: Bacteroides fragilis, GM7000
Protocol: as §1

B. fragilis V-280-1 = conditions: 10^6 CFU inoculated, 37° C., 18 hours; for MIC: Bacteroides fragilis, V2801
Protocol: as §1

E. coli NIHI JC-2 = conditions: 10^6 CFU inoculated, 37° C., 18 hours; for MIC: Escherichia coli, NIHIJC2
Protocol: as §1

E. coli W3630/Rms212 = conditions: for MIC: Escherichia coli, W3630/RMS212, 18 h, read-out: minimum inhibitory concentration (MIC)
Protocol: as §1

E. coli W3630/Rms213 = conditions: for MIC: Escherichia coli, W3630/RMS213, 18 h, read-out: minimum inhibitory concentration (MIC)
Protocol: as §1

Ent. cloacae 963 = conditions: 10^6 CFU inoculated, 37° C., 18 hours; for MIC: Enterobacter cloacae, 963
Protocol: as §1

F. varium ATCC8501 = conditions: 10^6 CFU inoculated, 37° C., 18 hours; for MIC: Fusobacterium varium, ATCC8501
Protocol: as §1

K. pneumoniae PC1602 = conditions: 10^6 CFU inoculated, 37° C., 18 hours; for MIC: Klebsiella pneumoniae, PC1602
Protocol: as §1

M. luteus ATCC9341 = conditions: 10^6 CFU inoculated, 37° C., 18 hours; for MIC: Micrococcus luteus, ATCC9341
Protocol: as §1

Pr. morganii IFO3848 = conditions: 10^6 CFU inoculated, 37° C., 18 hours; for MIC: Morganella morganii, IFO3848
Protocol: as §1

Pr. vulgaris GN7919 = conditions: 10^6 CFU inoculated, 37° C., 18 hours; for MIC: Proteus vulgaris, GN7919
Protocol: as §1

S. aureus FAD209P JC-1 = conditions: 10^6 CFU inoculated, 37° C., 18 hours; for MIC: Staphylococcus aureus, FAD209PJC1
Protocol: as §1

Ser. marcescens IMA 1136 = conditions: 10^6 CFU inoculated, 37° C., 18 hours; for MIC: Serratia marcescens, IMA1136
Protocol: as §1

[1] = 10^6 CFU inoculated, 37° C., 18 hours

Structure (SMILES) | MIC (Al. fecalis IFO13111) | MIC (B. fragilis GM7000) | MIC (B. fragilis V-280-1) | MIC (E. coli NIHI JC-2) | MIC (E. coli W3630/Rms212) | MIC (E. coli W3630/Rms213) | MIC (Ent. cloacae 963) | MIC (F. varium ATCC8501) | MIC (K. pneumoniae PC1602) | MIC (M. luteus ATCC9341) | MIC (Pr. morganii IFO3848) | MIC (Pr. vulgaris GN7919) | MIC (S. aureus FAD209P JC-1) | MIC (Ser. marcescens IMA 1136) | also measured
C[C@@H](O)[C@@H]1C(=O)N2C(C(=O)[O-])=C([C@H]3CCC(=O)O3)S[C@@H]12.[K+] [SUN 4325, Potassium (1'R, 2"R, 5S, 6R)-6-(1'-hydroxyethyl)-2[2"-(5"-oxo)oxolanyl]penem-3-carboxylate] |  |  |  |  |  |  |  |  |  |  |  |  |  |  | minimum inhibitory concentration (MIC) (Al. fecalis IFO13111): 12.5 µg/mL; minimum inhibitory concentration (MIC) (B. fragilis GM7000): 3.13 µg/mL; minimum inhibitory concentration (MIC) (B. fragilis V-280-1): > 12.5 µg/mL; minimum inhibitory concentration (MIC) (E. coli NIHI JC-2): 25 µg/mL; minimum inhibitory concentration (MIC) (E. coli W3630/Rms212; [1]): > 50 µg/mL; minimum inhibitory concentration (MIC) (E. coli W3630/Rms213; [1]): 25 µg/mL; minimum inhibitory concentration (MIC) (Ent. cloacae 963): > 50 µg/mL; minimum inhibitory concentration (MIC) (F. varium ATCC8501): > 12.5 µg/mL; minimum inhibitory concentration (MIC) (K. pneumoniae PC1602): 1.25 µg/mL; minimum inhibitory concentration (MIC) (M. luteus ATCC9341): 1.56 µg/mL; minimum inhibitory concentration (MIC) (Pr. morganii IFO3848): 50 µg/mL; minimum inhibitory concentration (MIC) (Pr. vulgaris GN7919): > 50 µg/mL; minimum inhibitory concentration (MIC) (S. aureus FAD209P JC-1): 3.13 µg/mL; minimum inhibitory concentration (MIC) (Ser. marcescens IMA 1136): 50 µg/mL
C[C@@H](O)[C@H]1C(=O)N2C(C(=O)O)=C([C@H]3CCOC3)S[C@H]12 [SUN 4725, Potassium (1'R, 3"S, 5R, 6S)-6-(1'-hydroxyethyl)-2-(11-tetrahydrofuranyl)penem-3-carboxylate] | 0.78 µg/mL | 0.05 µg/mL | 0.05 µg/mL | 1.56 µg/mL | 3.13 µg/mL | 1.56 µg/mL | 6.25 µg/mL | 0.39 µg/mL | 0.1 µg/mL | 0.1 µg/mL | 12.5 µg/mL | 0.78 µg/mL | 0.05 µg/mL | 6.25 µg/mL | 
C[C@@H](O)[C@H]1C(=O)N2C(C(=O)O)=C([C@@H]3CCOC3)S[C@H]12 [SUN 4726, Potassium (1'R, 3"R, 5R, 6S)-6-(1'-hydroxyethyl)-2-(3"-tetrahydrofuranyl)penem-3-carboxylate] | 1.56 µg/mL | 0.05 µg/mL | 0.05 µg/mL | 1.56 µg/mL | 3.13 µg/mL | 1.56 µg/mL | 6.25 µg/mL | 0.1 µg/mL | 0.05 µg/mL | 0.05 µg/mL | 12.5 µg/mL | 1.56 µg/mL | 0.05 µg/mL | 12.5 µg/mL | 
C[C@@H](O)[C@H]1C(=O)N2C(C(=O)O)=C([C@@H]3CCCCO3)S[C@H]12 [SUN 4740, Potassium (1'R, 2"S, 5R, 6S)-6-(1'-hydroxyethyl)-2-(2"-tetrahydropyranyl)penem-3-carboxylate] | 6.25 µg/mL | 0.78 µg/mL | 0.78 µg/mL | > 50 µg/mL | > 50 µg/mL | > 50 µg/mL | > 50 µg/mL | 6.25 µg/mL | 3.13 µg/mL | 0.05 µg/mL | 25 µg/mL | 1.25 µg/mL | 0.1 µg/mL | > 50 µg/mL | 
C[C@@H](O)[C@H]1C(=O)N2C(C(=O)O)=C([C@H]3CCCCO3)S[C@H]12 [SUN 4741, Potassium (1'R, 2"R, 5R, 6S)-6-(1'-hydroxyethyl)-2-(2"-tetrahydropyranyl)penem-3-carboxylate] | 0.78 µg/mL | 0.1 µg/mL | 0.1 µg/mL | 6.25 µg/mL | 12.5 µg/mL | 6.25 µg/mL | 25 µg/mL | 0.39 µg/mL | 0.1 µg/mL | 0.1 µg/mL | 3.13 µg/mL | 3.13 µg/mL | 0.1 µg/mL | 25 µg/mL | 
C[C@@H](O)[C@H]1C(=O)N2C(C(=O)O)=C([C@@H]3COCCO3)S[C@H]12 [SUN 4770, Potassium (1'R, 2"S, 5R, 6S)-6-(1'-hydroxyethyl)-2-(2"-para-dioxanyl)penem-3-carboxylate] | 6.25 µg/mL | 0.39 µg/mL | 0.39 µg/mL | 1.56 µg/mL | 12.5 µg/mL | 12.5 µg/mL | 25 µg/mL | 3.13 µg/mL | 0.78 µg/mL | 0.1 µg/mL | 25 µg/mL | 6.25 µg/mL | 0.2 µg/mL | 50 µg/mL | 

Source: patent US4997829A, “Penem compounds, and use thereof” (Suntory Limited, priority 1985, dated 1991)
